From patent US20250101039A1, “RIFAMYCIN DERIVATIVES FOR THE TREATMENT OF DISEASES” (priority 2022, published 2025)
≈ marks a conversion by molar mass, not a printed value. Read-outs that look alike come from different tables or passages of the source.

How the values were obtained:
S. aureus = assay: MIC by broth microdilution, S. aureus; assay type: cell-based, Staphylococcus aureus; settings: cation adjusted Mueller Hinton broth, 35° C. 20 hours
A. baumannii = assay: MIC by broth microdilution, A. baumannii (WT); assay type: cell-based, Acinetobacter baumannii; settings: for MIC: Acinetobacter baumannii
[1] = system: Enterococcus faecium (strain NCTC 12204); assay: MIC by broth microdilution, E. faecium; assay type: cell-based; settings: for MIC: Enterococcus faecium
[2] = system: Enterococcus faecalis (strain ATCC 51575); assay: MIC by broth microdilution, E. faecalis; assay type: cell-based; settings: for MIC: Enterococcus faecalis
[3] = system: Staphylococcus epidermidis (strain ATCC 12228); assay: MIC by broth microdilution, S. epidermidis; assay type: cell-based; settings: for MIC: Staphylococcus epidermidis
[4] = system: H. influenzae (strain ATCC 49247); assay: MIC by broth microdilution, H. influenzae; assay type: cell-based, Hemophilus influenzae; settings: for MIC: Haemophilus influenzae
A. baumannii RpoB H535Q = assay: microbe, parasite or virus in culture; assay type: cell-based, Acinetobacter baumannii; settings: for MIC: Acinetobacter baumannii, RPOBH535Q, 20 h
A. baumannii RpoB H535C = assay: microbe, parasite or virus in culture; assay type: cell-based, Acinetobacter baumannii; settings: for MIC: Acinetobacter baumannii, RPOBH535C, 20 h
A. baumannii RpoB H535L = assay: microbe, parasite or virus in culture; assay type: cell-based, Acinetobacter baumannii; settings: for MIC: Acinetobacter baumannii, RPOBH535L, 20 h
[5] = system: A. baumannii RpoB H535Q/S521T; assay: microbe, parasite or virus in culture; assay type: cell-based, Acinetobacter baumannii; settings: Acinetobacter baumannii, RPOBH535Q/S521T
A. baumannii RpoB L542F = assay: microbe, parasite or virus in culture; assay type: cell-based, Acinetobacter baumannii; settings: Acinetobacter baumannii, RPOBL542F, 20 h
[6] = system: S. pneumoniae (strain ATCC 49619); assay: MIC by broth microdilution, S. pneumoniae; assay type: cell-based, Streptococcus pneumoniae; settings: strain ATCC 49619, cation adjusted Mueller Hinton broth + 5% laked horse blood
[7] = system: S. pyogenes (strain IHMA 1117021); assay: MIC by broth microdilution, S. pyogenes; assay type: cell-based, Streptococcus pyogenes; settings: strain IHMA 1117021, cation adjusted Mueller Hinton broth + 5% laked horse blood
[8] = system: M. abscessus (strain ATCC 19977); assay: MIC by broth microdilution, M. abscessus; assay type: cell-based, Mycobacterium abscessus; settings: strain ATCC 19977, Middlebrook 7H9 broth + ADC
[9] = system: M. tuberculosis (H37Rv strain ATCC 27294); assay type: cell-based, Mycobacterium tuberculosis
[10] = system: M. smegmatis (strain ATCC 700084); assay: MIC, M. smegmatis (BacTiter-Glo); assay type: cell-based, Mycobacterium smegmatis; settings: strain ATCC 700084, Middlebrook 7H9 + ADC, 90% growth inhibition, 20 hours
[11] = RPMI medium supplemented with 10% FCS, 35° C. 20 hours
[12] = read-out: A. baumannii MIC, RpoB H535Q, Table 4, RPMI + FCS
[13] = read-out: MIC, RpoB mutation H535Q, Table 5 part 1 c2, 1st H535Q isolate, RPMI + 10% FCS
[14] = read-out: MIC, RpoB mutation H535Q, Table 5 part 1 c3, 2nd H535Q isolate, RPMI + 10% FCS
[15] = read-out: MIC, RpoB mutation H535Q, Table 5 part 1 c4, 3rd H535Q isolate, RPMI + 10% FCS
[16] = read-out: A. baumannii MIC, RpoB H535C, Table 4, RPMI + FCS
[17] = read-out: MIC, RpoB mutation H535C, Table 5 part 2 c1, 1st H535C isolate, RPMI + 10% FCS
[18] = read-out: MIC, RpoB mutation H535C, Table 5 part 2 c2, 2nd H535C isolate, RPMI + 10% FCS
[19] = read-out: MIC, RpoB mutation H535C, Table 5 part 2 c3, 3rd H535C isolate, RPMI + 10% FCS
[20] = read-out: MIC, RpoB mutation H535C, Table 5 part 2 c4, 4th H535C isolate, RPMI + 10% FCS
[21] = read-out: A. baumannii MIC, RpoB H535L, Table 4, RPMI + FCS
[22] = read-out: MIC, RpoB mutation H535L, Table 5 part 2 c5, 1st H535L isolate, RPMI + 10% FCS
[23] = read-out: MIC, RpoB mutation H535L, Table 5 part 2 c6, 2nd H535L isolate, RPMI + 10% FCS
[24] = read-out: MIC, RpoB mutation H535L, Table 5 part 3 c1, 3rd H535L isolate, RPMI + 10% FCS
[25] = read-out: MIC, RpoB mutation H535L, Table 5 part 3 c6, 4th H535L isolate, RPMI + 10% FCS
[26] = read-out: MIC, RpoB mutation H535L, Table 5 part 3 c7, 5th H535L isolate, RPMI + 10% FCS
[27] = read-out: MIC, RpoB mutation H535Q/S521T, Table 5 part 1 c5, 1st H535Q/S521T isolate, RPMI + 10% FCS
[28] = read-out: MIC, RpoB mutation H535Q/S521T, Table 5 part 1 c6, 2nd H535Q/S521T isolate, RPMI + 10% FCS
[29] = read-out: MIC, RpoB mutation L542F, Table 5 part 3 c2, 1st L542F isolate, RPMI + 10% FCS
[30] = read-out: MIC, RpoB mutation L542F, Table 5 part 3 c3, 2nd L542F isolate, RPMI + 10% FCS

Structure (SMILES) | MIC S. aureus (S. aureus) [µg/mL] | MIC A. baumannii (A. baumannii; [11]) [µg/mL] | MIC (A. baumannii RpoB H535Q; [12]) [µg/mL] | MIC (A. baumannii RpoB H535Q; [13]) [µg/mL] | MIC (A. baumannii RpoB H535Q; [14]) [µg/mL] | MIC (A. baumannii RpoB H535Q; [15]) [µg/mL] | MIC (A. baumannii RpoB H535C; [16]) [µg/mL] | MIC (A. baumannii RpoB H535C; [17]) [µg/mL] | MIC (A. baumannii RpoB H535C; [18]) [µg/mL] | MIC (A. baumannii RpoB H535C; [19]) [µg/mL] | MIC (A. baumannii RpoB H535C; [20]) [µg/mL] | MIC (A. baumannii RpoB H535L; [21]) [µg/mL] | MIC (A. baumannii RpoB H535L; [22]) [µg/mL] | MIC (A. baumannii RpoB H535L; [23]) [µg/mL] | MIC (A. baumannii RpoB H535L; [24]) [µg/mL] | MIC (A. baumannii RpoB H535L; [25]) [µg/mL] | MIC (A. baumannii RpoB H535L; [26]) [µg/mL] | MIC [5, 27] [µg/mL] | MIC [5, 28] [µg/mL] | MIC (A. baumannii RpoB L542F; [29]) [µg/mL] | also measured
CO[C@H]1/C=C/O[C@@]2(C)Oc3c(C)c(O)c4c(c3C2=O)C2=NC3(CC5CCC(C3)N5C)NC2=C(NC(=O)/C(C)=C\C=C\[C@H](C)[C@H](O)[C@@H](C)[C@@H](O)[C@@H](C)[C@H](OC(C)=O)[C@@H]1C)C4=O (single isomer, unassigned) [Compound 13B] | 0.016 (≈ 0.0193 µM) | < 0.002 | ≤ 0.002 | ≤ 0.002 | 4 | 2 | ≤ 0.002 | ≤ 0.002 | 0.002 | 0.004 | 0.016 | 0.03 | 0.004 | ≤ 0.002 | 0.25 | 0.03 | 0.03 | 0.5 | 1 | 0.002 | MIC (A. baumannii; 20 h, read-out: A. baumannii MIC, WT, Table 4, RPMI + FCS): ≤ 0.002 µg/mL; MIC ([1]; NCTC12204, read-out: MIC E. faecium): 0.125 µg/mL (≈ 0.15 µM); MIC ([2]; ATCC51575, read-out: MIC E. faecalis): 0.5 µg/mL (≈ 0.602 µM); MIC ([3]; ATCC12228, read-out: MIC S. epidermidis): < 0.002 µg/mL; MIC ([4]; ATCC49247, read-out: MIC H. influenzae): 0.125 µg/mL (≈ 0.15 µM); MIC (A. baumannii RpoB L542F; [30]): 0.125 µg/mL
CO[C@H]1/C=C/O[C@@]2(C)Oc3c(C)c(O)c4c(c3C2=O)C2=NC3(NC2=C(NC(=O)/C(C)=C\C=C\[C@H](C)[C@H](O)[C@@H](C)[C@@H](O)[C@@H](C)[C@H](OC(C)=O)[C@@H]1C)C4=O)C1CN(C)CC3CN(C)C1 (stereo partly shown) [Compound 18] | 0.016 (≈ 0.0186 µM) | 0.008 (≈ 0.0093 µM) | – | – | – | – | – | – | – | – | – | – | – | – | – | – | – | – | – | – | A. baumannii MIC, WT (A. baumannii; Table 4, RPMI + FCS): 0.008 µg/mL; MIC E. faecium ([1]; strain NCTC 12204, cation adjusted Mueller Hinton broth): 0.125 µg/mL (≈ 0.145 µM); MIC E. faecalis ([2]; strain ATCC 51575, cation adjusted Mueller Hinton broth): 2 µg/mL (≈ 2.33 µM); MIC S. epidermidis ([3]; strain ATCC 12228, cation adjusted Mueller Hinton broth): < 0.002 µg/mL; MIC S. pneumoniae [6]: < 0.002 µg/mL; MIC S. pyogenes [7]: < 0.002 µg/mL; MIC H. influenzae ([4]; strain ATCC 49247, Hemophilus test medium broth): 0.125 µg/mL (≈ 0.145 µM); MIC M. abscessus [8]: 32 µg/mL; MIC M. tuberculosis [9]: 0.01 µg/mL (≈ 0.0116 µM); MIC M. smegmatis [10]: 1.11 µg/mL; A. baumannii MIC, RpoB H535Q (A. baumannii RpoB H535Q; Table 4, RPMI + FCS): 0.03 µg/mL; A. baumannii MIC, RpoB H535C (A. baumannii RpoB H535C; Table 4, RPMI + FCS): 0.25 µg/mL; A. baumannii MIC, RpoB H535L (A. baumannii RpoB H535L; Table 4, RPMI + FCS): 4 µg/mL
CO[C@H]1/C=C/O[C@@]2(C)Oc3c(C)c(O)c4c(c3C2=O)C2=NC3(CCN(CC(C)C)CC3)NC2=C(NC(=O)/C(C)=C\C=C\[C@H](C)[C@H](O)[C@@H](C)[C@@H](O)[C@@H](C)[C@H](OC(C)=O)[C@@H]1C)C4=O [Rifabutin, reference compound] | – | – | 0.004 | 0.03 | > 32 | 16 | 0.03 | 0.06 | 0.016 | 0.25 | > 32 | > 32 | 0.06 | 0.008 | > 32 | > 32 | > 32 | 32 | 16 | 0.004 | MIC (S. aureus; Staphylococcus aureus, read-out: MIC S. aureus): 0.016 µg/mL (≈ 0.0189 µM); MIC (A. baumannii; 20 h, Table 4, RPMI + FCS, read-out: A. baumannii MIC, WT): ≤ 0.002 µg/mL; MIC (A. baumannii; read-out: MIC A. baumannii, RPMI medium supplemented with 10% FCS, 35° C. 20 hours): < 0.002 µg/mL; MIC ([1]; NCTC12204, strain NCTC 12204, cation adjusted Mueller Hinton broth, read-out: MIC E. faecium): 0.125 µg/mL (≈ 0.148 µM); MIC ([2]; ATCC51575, strain ATCC 51575, cation adjusted Mueller Hinton broth, read-out: MIC E. faecalis): 4 µg/mL (≈ 4.72 µM); MIC ([3]; ATCC12228, strain ATCC 12228, cation adjusted Mueller Hinton broth, read-out: MIC S. epidermidis): 0.004 µg/mL (≈ 0.00472 µM); MIC ([4]; ATCC49247, strain ATCC 49247, Hemophilus test medium broth, read-out: MIC H. influenzae): 0.5 µg/mL (≈ 0.59 µM); MIC (A. baumannii RpoB L542F; [30]): 1 µg/mL
